Data published in US9615577B2, “Herbicidally active cyclic dione compounds, or derivatives therefor, substituted by a phenyl which has an alkynyl-containing substituent” (Syngenta Limited, priority 2012, dated 2017).

Key:
Format in all cases: in vivo
[1] = test system: Alopecurus myosuroides (ALOMY); assay: Test 1B glasshouse assay for herbicidal activity, post-emergence; conditions: 360 h; for pest or weed control at 30 g/ha: 30 g/ha application rate; for pest or weed control at 60 g/ha: 60 g/ha application rate
Description: (§1) Seeds of a variety of monocotyledonous and dicotyledonous test plants are sown in standard soil in pots. The plants are cultivated for one day (for pre-emergence) or for about 12 days (range=10-13 days) (for post-emergence) under controlled conditions in a glasshouse (warm climate species at 24/18° C., cool climate species at 20/16° C., both at day/night; 16 hours light; 65% humidity).
(§2) An “instant formulation”, known as the “IF50”, containing 50 g/liter (i.e. 5% w/v) of the “technical” (i.e. unformulated) active ingredient is prepared by dissolving the active ingredient in a mixture of organic solvents and emulsifier, details of which are provided in the Table below. This IF50 is then mixed with a small, variable amount of acetone to aid dissolution, before addition of a 0.2% v/v aqueous solution of the adjuvant X-77 (which is a mixture of alkyl aryl polyoxyethylene glycols and free fatty acids in isopropanol, CAS Registry number 11097-66-8), as the aqueous diluent, to form an aqueous spray solution which contains a predetermined concentration of the active ingredient (which varies depending on the application rate of the active ingredient to the plants) and 0.2% v/v of the adjuvant X-77. This aqueous spray solution is then sprayed onto the plants, after one day's cultivation (for pre-emergence) or after about 12 days' cultivation (for post-emergence).
(§3) The test plants are then grown on, in a glasshouse (greenhouse) under controlled conditions (at either 24/18° C. or 20/16° C. (day/night) as mentioned above; 16 hours light; 65% humidity) and are watered twice daily. Either 15 days after application of the herbicide (15 DAA) (for post-emergence), or 20 days after application of the herbicide (20 DAA) (for pre-emergence), the test plants are evaluated visually, and an assessed percentage phytotoxicity score is given for each herbicidal application on each plant species (where 100%=total damage to plant; 0%=no damage to plant).
(§4) Cool climate (“cool season”) grassy monocotyledonous weeds: Alopecurus myosuroides (ALOMY), Avena fatua (AVEFA), Lolium perenne (LOLPE).

Avena fatua (AVEFA) = assay: as above; conditions: 360 h; for pest or weed control at 30 g/ha: 30 g/ha application rate; for pest or weed control at 60 g/ha: 60 g/ha application rate
Description: as §1, §2, §3, §4

Lolium perenne (LOLPE) = assay: as above; conditions: 360 h; for pest or weed control at 30 g/ha: 30 g/ha application rate; for pest or weed control at 60 g/ha: 60 g/ha application rate
Description: as §1, §2, §3, §4

[2] = test system: Digitaria sanguinalis (DIGSA); assay: Test 1B glasshouse assay for herbicidal activity, pre-emergence; conditions: 480 h, 20 DAA, read-out: percentage phytotoxicity DIGSA
Description: as §1, §2, §3
(§5) Warm climate (“warm season”) grassy monocotyledonous weeds: Setaria faberi (SETFA), SORVU (Sorghum bicolor (L.) Moench ssp. Bicolor, or Sorghum vulgare Pers.), Digitaria sanguinalis (DIGSA), Echinochloa crus-galli (ECHCG), and Brachiaria plantaginea (BRAPL).

Setaria faberi (SETFA) [3] = assay: as above; conditions: 480 h, 20 DAA, read-out: percentage phytotoxicity SETFA
Description: as §1, §2, §3, §5

[4] = test system: SORVU (Sorghum bicolor (L.) Moench ssp. Bicolor, or Sorghum vulgare Pers.); assay: as above; conditions: 480 h, 20 DAA, read-out: percentage phytotoxicity SORVU
Description: as §1, §2, §3, §5

[5] = test system: Echinochloa crus-galli (ECHCG); assay: as above; conditions: 480 h, 20 DAA, read-out: percentage phytotoxicity ECHCG
Description: as §1, §2, §3, §5

[6] = test system: Echinochloa crus-galli (ECHCG); assay: Test 1B glasshouse assay for herbicidal activity, post-emergence; conditions: Echinochloa crus-galli; for pest or weed control at 30 g/ha: 30 g/ha application rate; for pest or weed control at 60 g/ha: 60 g/ha application rate
Description: as §1, §2, §3, §5
Note: The herbicidal activity data (e.g. post-emergence) shown above in Biological Example 1B for Comparator compounds X-9 and X-10 is thought likely to have been measured some years ago, probably using a variant of the above-described test method. Also, for the post-emergence activity of X-9 and X-10 it is not currently known exactly how many days after application of the herbicide the phytotoxicity on the plants was measured.

[7] = test system: SORVU (Sorghum bicolor (L.) Moench ssp. Bicolor, or Sorghum vulgare Pers.); assay: as above; conditions: 360 h; for pest or weed control at 30 g/ha: 30 g/ha application rate; for pest or weed control at 60 g/ha: 60 g/ha application rate
How it was run: (§6)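 Seeds sown in standard soil; sprayed after 1 day (pre-emergence) or ~12 days (post-emergence) with active ingredient from a 50 g/liter IF50 formulation diluted in 0.2% v/v X-77 aqueous adjuvant. Glasshouse at 24/18° C. day/night, 16 h light, 65% humidity; visual % phytotoxicity scored 20 DAA (pre) or 15 DAA (post).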

[8] = test system: Alopecurus myosuroides (ALOMY); assay: Test 1A glasshouse assay for herbicidal activity, pre-emergence; conditions: 312 h, 250 g/ha, evaluated after 13 days, read-out: percentage phytotoxicity ALOMY
How it was run: (§7)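 Phytotoxicity was rated visually 13 days post-spray, 0 meaning no damage and 100 total damage. Spray solution: acetone/water 50:50 with 0.5% Tween 20, applied one day post-sowing for pre-emergence or after 8 days for post-emergence; plants kept at 24/16 °C, 14 h light, 65% humidity.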

Setaria faberi (SETFA) [9] = assay: as above; conditions: 312 h, 250 g/ha, evaluated after 13 days, read-out: percentage phytotoxicity SETFA
How it was run: as §7

[10] = test system: Amaranthus retroflexus (AMARE); assay: as above; conditions: 312 h, 250 g/ha, evaluated after 13 days, read-out: percentage phytotoxicity AMARE
How it was run: as §7

[11] = test system: Echinochloa crus-galli (ECHCG); assay: as above; conditions: 312 h, 250 g/ha, evaluated after 13 days, read-out: percentage phytotoxicity ECHCG
How it was run: as §7

[12] = test system: Abutilon theophasti Medik. (ABUTH); assay: Test 1A glasshouse assay for herbicidal activity, post-emergence; conditions: 312 h, evaluated after 13 days, read-out: percentage phytotoxicity ABUTH
How it was run: as §7

[13] = test system: Brachiaria plantaginea (BRAPL); assay: Test 1B glasshouse assay for herbicidal activity, pre-emergence; conditions: Urochloa plantaginea, 480 h, 500 g/ha, 20 DAA, read-out: percentage phytotoxicity BRAPL
Description: as §1, §2, §3, §5

[14] = test system: Brachiaria plantaginea (BRAPL); assay: Test 1B glasshouse assay for herbicidal activity, post-emergence; conditions: Urochloa plantaginea; for pest or weed control at 60 g/ha: 60 g/ha application rate
How it was run: as §6

SMILES | pest or weed control at 30 g/ha [1] | pest or weed control at 30 g/ha (Avena fatua (AVEFA)) | pest or weed control at 30 g/ha (Lolium perenne (LOLPE)) | pest or weed control at 30 g/ha [6] | pest or weed control at 30 g/ha [7] | pest or weed control at 250 g/ha [8] | pest or weed control at 250 g/ha (Setaria faberi (SETFA) [9]) | pest or weed control at 250 g/ha [10] | pest or weed control at 250 g/ha [11] | pest or weed control at 30 g/ha [12] | pest or weed control at 250 g/ha [12] | also measured
CC#Cc1cc(C)c(C2C(=O)CC(CC3CCOCC3)CC2=O)c(C)c1 (stereo not shown) [Compound A-9] | 80% | 70% | 60% | 100% | 80% | 100% | 100% | 100% | 100% | – | – | pest or weed control at 125 g/ha ([2]; 125 g/ha): 100%; pest or weed control at 125 g/ha (Setaria faberi (SETFA) [3]; 125 g/ha): 100%; pest or weed control at 125 g/ha ([4]; 125 g/ha): 90%; pest or weed control at 125 g/ha ([5]; 125 g/ha): 90%
CC#Cc1cc(Cl)c(C2C(=O)C3CCC(C3)C2=O)c(OCC)c1 (stereo not shown) [Compound A-16] | 20% | 0% | 20% | 80% | 80% | 100% | 100% | 80% | 100% | 60% | 60% | pest or weed control at 125 g/ha ([1]; 125 g/ha application rate): 80%; pest or weed control at 125 g/ha (Avena fatua (AVEFA); 125 g/ha application rate): 60%; pest or weed control at 125 g/ha (Lolium perenne (LOLPE); 125 g/ha application rate): 70%; pest or weed control at 250 g/ha [2]: 100%; pest or weed control at 250 g/ha (Setaria faberi (SETFA) [3]): 90%; pest or weed control at 250 g/ha [4]: 80%; pest or weed control at 250 g/ha [5]: 80%; pest or weed control at 125 g/ha ([6]; 125 g/ha application rate): 100%; pest or weed control at 125 g/ha ([7]; 125 g/ha application rate): 100%
CC#Cc1cc(Cl)c(C2C(=O)CC3(CCOCC3)CC2=O)c(OC)c1 [Compound A-20, 9-(2-Chloro-6-methoxy-4-prop-1-ynyl-phenyl)-3-oxa-spiro[5.5]undecane-8,10-dione] | – | – | – | – | – | 100% | 100% | 90% | 100% | 80% | 80% | pest or weed control at 8 g/ha ([12]; 8 g/ha): 50%
CC#Cc1cc(C)c(C2C(=O)CC(CCSC)CC2=O)c(C)c1 (stereo not shown) [Compound A-21, 2-(2,6-Dimethyl-4-prop-1-ynyl-phenyl)-5-(2-methylsulfanyl-ethyl)cyclohexane-1,3-dione] | – | – | – | – | – | 100% | 100% | 90% | 100% | 10% | 60% | –
CC#Cc1ccc(C2C(=O)C3CCC(C3)C2=O)c(C)c1 (single isomer, unassigned) [Compound A-2] | – | – | – | – | – | 90% | 70% | 0% | 100% | – | – | pest or weed control at 60 g/ha [1]: 90%; pest or weed control at 60 g/ha (Avena fatua (AVEFA)): 80%; pest or weed control at 60 g/ha (Lolium perenne (LOLPE)): 80%; pest or weed control at 500 g/ha [2]: 100%; pest or weed control at 500 g/ha (Setaria faberi (SETFA) [3]): 90%; pest or weed control at 500 g/ha [4]: 80%; pest or weed control at 500 g/ha [13]: 100%; pest or weed control at 500 g/ha [5]: 100%; pest or weed control at 60 g/ha [6]: 100%; pest or weed control at 60 g/ha [7]: 80%; pest or weed control at 60 g/ha [14]: 100%
CC#Cc1ccc(C2C(=O)C(C)(C)OC(C)(C)C2=O)c(C)c1 [Compound A-1] | – | – | – | – | – | 90% | 90% | 0% | 80% | – | – | pest or weed control at 60 g/ha [1]: 80%; pest or weed control at 60 g/ha (Avena fatua (AVEFA)): 60%; pest or weed control at 60 g/ha (Lolium perenne (LOLPE)): 80%; pest or weed control at 500 g/ha [2]: 60%; pest or weed control at 500 g/ha (Setaria faberi (SETFA) [3]): 50%; pest or weed control at 500 g/ha [4]: 60%; pest or weed control at 500 g/ha [13]: 90%; pest or weed control at 500 g/ha [5]: 100%; pest or weed control at 60 g/ha [6]: 90%; pest or weed control at 60 g/ha [7]: 0%; pest or weed control at 60 g/ha [14]: 90%
CC#Cc1cc(Cl)c(C2C(=O)C3CCC(C)(C2=O)C3(C)C)c(OC)c1 (stereo not shown) [Compound A-17] | – | – | – | – | – | 90% | 90% | 60% | 100% | – | 10% | pest or weed control at 250 g/ha ([1]; 250 g/ha application rate): 50%; pest or weed control at 250 g/ha (Avena fatua (AVEFA); 250 g/ha application rate): 0%; pest or weed control at 250 g/ha (Lolium perenne (LOLPE); 250 g/ha application rate): 20%; pest or weed control at 250 g/ha [2]: 100%; pest or weed control at 250 g/ha (Setaria faberi (SETFA) [3]): 50%; pest or weed control at 250 g/ha [4]: 50%; pest or weed control at 250 g/ha [5]: 100%; pest or weed control at 250 g/ha ([6]; 250 g/ha application rate): 90%; pest or weed control at 250 g/ha ([7]; 250 g/ha application rate): 80%
Cc1cc(C#CCl)cc(C)c1C1C(=O)CC(CC2CCOCC2)CC1=O (stereo not shown) [Compound A-8] | 80% | 70% | 40% | 100% | 90% | 90% | 90% | 90% | 100% | – | – | pest or weed control at 30 g/ha ([14]; 30 g/ha application rate): 90%
